Laboratory results from US11951167B2, “Targeted liposomes” (GEORGETOWN UNIVERSITY, priority 2012, dated 2024).

Legend:
[1] = tested on: U87MG-Luc xenograft brain tumors; test: Survival of mice with intracranial GBM tumors (Kaplan-Meier); assay type: in vivo, nude mice
Description: U87MG-Luc xenograft brain tumors were induced in nude mice as described above. 10 days post-inoculation, tumor-bearing animals were i.v. tail vein injected with TMZ alone (25.0 mg/kg/injection), scL-p53 alone (30 ug DNA/mouse/injection) (prepared as described in U.S. Pat. No. 7,780,882) or TMZ in combination with scL-p53. As a control, one group received PBS (vehicle). All i.v. injections were administered 2×/week to a total of 10 injections. The animals were monitored 2-3 times/week and euthanized when moribund. The gray bar in FIG. 27 indicates the duration of treatment.

U251 cells = test: XTT sensitization to TMZ by scL-p53; assay type: cell-based, human; conditions: XTT 144 h after TMZ addition
Description: (§1) To assess the ability of scL delivered wtp53 to sensitize brain tumor cells to first-line chemotherapeutic agent TMZ, human brain tumor derived U87 and U251 cells were treated with TMZ alone, or the combination of TMZ plus scL-p53 (prepared as described in U.S. Pat. No. 7,780,882). As a control, cells were also treated with the combination of TMZ and the scL delivery system carrying the same vector used to construct the pSCMVp53 plasmid, but without the p53 insert (scL-vec). The cells were plated in a 96-well plate and treated 24 hours later with scL-p53 or scL-vec. 6 hours post-transfection, the TMZ was added in increasing concentrations. […] As these two cell lines are known to be sensitive to TMZ, it was not unexpected that there was some response to TMZ alone.

U87 cells [2] = test: XTT sensitization to TMZ by scL-p53; assay type: cell-based, human; conditions: XTT 144 h after TMZ addition
Description: as §1

U87 cells [3] = test: XTT cell viability, Lip-TMZ vs free TMZ; assay type: cell-based, human
intracranial T98G tumors = test: Survival of mice with TMZ resistant intracranial GBM tumors; assay type: in vivo, athymic nude mice; conditions: TMZ 100 mg/m^2 i.v. daily for 14 days; scL-p53 30 ug DNA twice weekly for 2 weeks
Description: Thus an experiment was performed to assess survival of mice bearing intracranial tumors derived from TMZ resistant human GBM cell line T98G. Athymic nude mice were intracranially inoculated with T98G human glioblastoma cell line. Ten days after the inoculation, animals were imaged by MRI and evenly divided into 3 groups. Treatment was started immediately after imaging. The animals were iv treated with 100 mg/m^2 of TMZ once a day for 14 consecutive days, iv administered scL-p53 (30 ug DNA/injection) (prepared as described in U.S. Pat. No. 7,780,882) twice weekly for 2 weeks, or the combination of both treatments. Survival was monitored. The number of mice surviving/group at day 14 is indicated for each group. […] In contrast, 4 of 5 mice that had received the combination therapy were still surviving.

Cn1nnc2c(C(N)=O)ncn2c1=O [TMZ, temozolomide] was tested, and the “day by which all of the mice succumbed to their tumor” value ([1]; TMZ 25.0 mg/kg) was ~155 days, the “Median Survival” value ([1]; TMZ 25.0 mg/kg, scL-p53 30 ug DNA/mouse, i.v. 2x/week, 10 injections) was 112 days and the “Survival Prolongation (%)” value ([1]; ratio of the median survival of untreated GBM xenografts) was 348%. The “sensitization/response to TMZ” value (U251 cells) was “some response”, the “sensitization/response to TMZ” value (U87 cells [2]) was “some response” and the cell killing effect (U87 cells [3]) was “virtually no cell killing effect”. The “mice surviving at day 14” value (intracranial T98G tumors) was “a significant number of animals succumbed”.
